Data taken from patent US9604931B2, “Nuclear receptor binding agents” (GTx, Inc., priority 2007, dated 2017).

What was measured:
[1] = system: Rat Aortic Smooth Muscle Cells (RASMC); experiment: RASMC cell proliferation assay (WST-1); assay type: cell-based; conditions: Rattus norvegicus, read-out: EC50 for inhibition of RASMC proliferation
Method: EC50 values were calculated using WinNonLin 5.0.1 using the inhibitory effect sigmoid Emax model.

[2] = system: Ang II induced left ventricular hypertrophy; experiment: Angiotensin II model, cardiac hypertrophy; assay type: in vivo, ovariectomized C57/BJ6 and ERβKO mice; conditions: 21 days
Method: (§1) Thirty, ten week old female ovariectomized C57/BJ6 mice, were obtained from Harlan/Sprague Dawley and were housed in 12 hour on/off lighting and fed rodent chow devoid of soy or most plant products. Ovariectomized ERβKO mice were obtained from Ken Korach, NIEHS. The ERβ mice were originally created by Drs. Smithies, Gustafsson, and colleagues. All mice were identically housed and fed the same chow.
(§2) This pellet is well documented to produce physiological levels of E2 in the serum of mice.
At inception and after 21 days, the mice were weighed. Blood pressure was measured 4 times during the 21-day period, using the CODA non-invasive blood pressure measuring system. At 21 days the hearts were stopped in diastole by CdCl2 administration. The hearts were removed and weighed and the ratio of heart per total body weight was determined. Next, the hearts were dissected and the left ventricles were weighed and the ratio of left ventricle per total body weight was determined. […] For comparison ERβ gene-deleted mice were subjected to the same conditions of Ang II±E2 or the 12u compound. For histology, the hearts were and sectioned, and stained with hematoxylin and eosin, or Masson stain (for collagen)

[3] = system: Ang II induced cardiac fibrosis; experiment: Angiotensin II model, cardiac fibrosis; assay type: in vivo, ovariectomized C57/BJ6 and ERβKO mice
Method: as §1, §2
Left ventricular tissues were fixed in 4% paraformaldehyde solution. Paraffin-embedded tissue sections (5 um) were stained with Masson's trichrome for the presence of interstitial collagen fiber accumulation indicative of cardiac fibrosis. The ratio of interstitial fibrosis to the total left ventricular area was calculated from 10 randomly selected microscopic fields from each of five sections per heart using NIH imageJ analysis software (n=5 mice per condition). Further quantification of collagen deposition was made by ventricular content of hydroxyproline, a breakdown product of collagen, determined by a modified method of Bergman and Loxley (19). The ventricular tissues were homogenized and hydrolyzed in 6 N HCl at 110° C. for 24 h in a sealed reaction vial. The sample was dried and the residue re-suspended in sterile water. 0.5 ml of chloramine T was added for 5 min, then Ehrlich's reagent (3 ml) was added and the mixture left for 18 h at room temperature. The intensity of the red coloration that developed was measured by a spectrophotometer at 558 nm.

ER-β = ER-β (Rattus norvegicus (Rat), UniProt Q62986); experiment: ER-β transactivation (ERE-LUC) in COS or 293 cells; assay type: cell-based
[4] = system: Ang II induced hypertension; experiment: Angiotensin II model, blood pressure; assay type: in vivo, ovariectomized C57/BJ6 and ERβKO mice; design: Systolic pressure / Diastolic pressure: unit: mmHg; conditions: for Diastolic pressure / Systolic pressure: Ang II
Method: as §1, with “ERβ gene-deleted (ERβKO or ERβ-KO)” for “ERβKO”
as §2
Blood pressure was measured 4 times during the 21-day period, using the CODA non-invasive blood pressure measuring system (Kent Scientific, Torrington, Conn.). Measurements were done by volume pressure recordings of the tail.

ARPE-19 cells = experiment: Fluorescent detection of intracellular ROS; assay type: cell-based, Human; conditions: 150 μM tBH
Source text: Cells were allowed to adhere overnight. […] Removed and washed cells once with HBSS. […] Each drug concentration was done in triplicates.

SHP promoter = experiment: SHP promoter-luciferase assay in HEK-293 cells; assay type: cell-based
Method: FIG. 12 depicts the effect of ER-β ligand on PPAR-γ function through ligand binding domain (LBD). (A). HEK-293 cells were transfected with 0.25 μg PPRE-LUC, 5 ng CMV-renilla LUC and the indicated receptors (PPAR-γ and ER-β for the left panel and PPAR-α and ER-β for the right panel). The cells were treated 24 hrs after transfection with the indicated ligands and harvested 48 hrs after transfection and firefly luciferase activity was measured and normalized to renilla luciferase. (B). H475 in ER-β LBD is important for its function. H475 in ER-β LBD was mutated to alanine (A) using a site directed mutagenesis kit. Transactivation assay was performed as described in panel A in HEK-293 cells with a titration of ER-β ligands in wild type (WT) or ER-β H475A. (C). […] HEK-293 cells were transfected with 0.25 μg PPRE-LUC, 5 ng CMV-renilla LUC and 50 ng of the indicated receptors (PPAR-γ or PPAR-γ and wild type ER-β or PPAR-γ and ER-β H475A). The cells were treated 24 hrs after transfection with the indicated ligands and harvested 48 hrs after transfection and firefly luciferase activity was measured and normalized to renilla luciferase. (D). […] HepG2 cells were transfected with 0.25 μg PPRE-LUC, 5 ng CMV-renilla LUC, 0.5 μg PGC-1 or vector backbone and 100 ng of the indicated receptors (PPAR-γ or PPAR-γ and wild type ER-β or PPAR-γ and ER-β H475A for top panels and PPAR-α or PPAR-α and ER-β for bottom panel). The cells were treated 24 hrs after transfection with the indicated ligands and harvested 48 hrs after transfection and firefly luciferase activity was measured and normalized to renilla luciferase. (E). SHP-1 is an ER-β specific target gene. HEK-293 cells were transfected with 0.25 μg SHP-LUC, 5 ng CMV-renilla LUC and 50 ng of the indicated receptors (FXR and ER-α for the left panel and FXR and ER-β for the right panel). The cells were treated 24 hrs after transfection with the indicated ligands and harvested 48 hrs after transfection and firefly luciferase activity was measured and normalized to renilla luciferase. PPAR—peroxisome proliferator and activated receptor; ER—estrogen receptor; H—histidine; A—alanine; RLU—relative luciferase units; Tro—troglitazone; PGC-1—PPAR-γ coactivator; SHP—small heterodimer partner; FXR—farsenoid X receptor.
Human estrogen receptors (ER-α and ER-β) were cloned from prostate cDNA into a pCR3.1 plasmid vector backbone. PGC-1 was cloned into mammalian two hybrid vector pACT. ER-β H475 was mutated to alanine using site-directed mutagenesis. Sequencing was performed to determine the absence of any non specific mutations. SHP promoter (−572 to +10) (26) was cloned into pGL3 basic LUC reporter vector and human FXR was cloned into pCR3.1. […]

[5] = target: ERα ligand binding domain (Homo sapiens, UniProt P03372); experiment: Competitive [3H]-estradiol binding assay, ER-α (Example 21); conditions: 100 nM of compound; read-out: Percent Inhibition of [3H]-Estradiol Binding to ER-α
Method: (§3) ER binding affinity was determined via one of the following methods:
(§4) Briefly, the incubation mixture was filtered through a high affinity protein binding filter, and washed several times to remove any unbound radioactivity. The filter plate was air dried and sealed on the bottom.
(§5) Nonspecific binding was subtracted from total binding to yield specific binding.

[6] = target: ERβ ligand binding domain (Homo sapiens, UniProt Q92731); experiment: Competitive [3H]-estradiol binding assay, ER-β (Example 21)
Method: as §3, §4, §5

rat aorta rings = experiment: Rat aortic ring relaxation; conditions: 10^-6 PE constriction
Source text: Experimental protocol. Equipment used in these studies included a 4-tissue bath system with reservoirs and circulators (RadnotiGlass Technology, Monrovia, Calif.), DSI/Ponemah tissue force analyzer 7700 (Valley View, Ohio), and iWorx/CB Sciencesforce transducers FT-302. The 250 g rats were anesthetized with isoflurane to produce deep anesthesia. The chest of the rat was opened, and about 3 cm length of aorta was removed and placed in a Petri dish containing room temperature Krebs salt solution (KSS, in mM: 120 NaCl, 5 KCl, 1.2 MgSO4.7H20, 2.5 CaCl2.2H2O, 1 KH2PO4, 25 NaHCO3, and 11 glucose). Fat and connective tissue were removed from the aorta taking care not to stretch the vessel. The aorta was then divided into 3-mm-wide rings. Triangular wire holders were inserted through the lumen of the vessel and connected to the force transducer and tissue holder rod in the vessel bath.
Analog-to-digital conversions of force waveforms were accomplished with a DSI/Ponemah tissue force analyzer 7700. The converted data were automatically analyzed with Ponemah Physiology-Smooth Muscle software. All data are summarized as means±standard error. Differences between means were assessed by a conventional ANOVA. This was followed by Student's test. P<0.05 was considered to be statistically significant.
The tension on the rings was adjusted to 1.0 g passive force using the tension adjustment dial for each transducer and allowed to equilibrate for 60 min in the bath with a 95% O2-5% CO2 gas mixture. The rings were washed with fresh buffer every 20 min. Passive force was readjusted to 1.0 g as needed during this period. When rings were stable at 1.0 g of passive force, the baseline was calculated.
Phenylephrine (PE) at a final concentration of […] was added to the bath to contract the ring, and force was allowed to stabilize for 10 min. Then acetylcholine (ACH) at a final concentration of 10^−5 M was added to the precontracted rings to test for endothelial integrity […]. After the initial test for vessel viability and endothelial integrity, the rings were washed three times for 10 min with buffer, allowing it to equilibrate to active force stabilized at 1 g.
Cumulative concentration-response curves to NRBAs were created by increasing the NRBAs concentration in the tissue bath by successive addition of appropriate dilutions of stock solutions to achieve final bath concentrations of 300 nM to 0.15 mM NRBAs.
Table 10 summarizes EC50 values and maximal % decrease of the 10^−6 PE constriction of the aortic ring for individual NRBAs tested

[7] = system: LPS induced THP-1 macrophage cell adhesion to bEND-3 endothelial cells; experiment: Macrophage adhesion assay; assay type: cell-based
Method: To determine the anti-inflammatory effects of ER-β NRBAs in vitro, a macrophage adhesion assay was performed. Macrophages adhere to endothelial cells due to elevated levels of pro-inflammatory cytokines. This principle was used in this assay to determine the effect of one of the ER-NRBAs on bacterial lipopolysaccharide (LPS) induced THP-1 macrophage cell adhesion to bEND-3 endothelial cells.

ER-α = ER-α (Rattus norvegicus (Rat), UniProt P06211); assay type: cell-based
Method: COS or 293 cells were plated in DME without phenol red+10% cs FBS at 90,000 cells per well in 24 well plates, and were transfected with 0.25 μg of the vector “ERE-LUC”, where a firefly luciferase gene was driven by two estrogen responsive elements and 0.02 μg of the control CMV-LUC, Renilla where a luciferase gene was driven by a CMV promoter. […] All the receptors were cloned from rat tissue into the PCR3.1 vector backbone. Twenty four hours post transfection, cells were treated with compounds of this invention, estrogen, DHT, and other NRBAs or combinations thereof. Cells were harvested 48 hrs after transfection, and assayed for firefly and Renilla luciferase activity.

ER-β, sequence (Q62986 whole entry): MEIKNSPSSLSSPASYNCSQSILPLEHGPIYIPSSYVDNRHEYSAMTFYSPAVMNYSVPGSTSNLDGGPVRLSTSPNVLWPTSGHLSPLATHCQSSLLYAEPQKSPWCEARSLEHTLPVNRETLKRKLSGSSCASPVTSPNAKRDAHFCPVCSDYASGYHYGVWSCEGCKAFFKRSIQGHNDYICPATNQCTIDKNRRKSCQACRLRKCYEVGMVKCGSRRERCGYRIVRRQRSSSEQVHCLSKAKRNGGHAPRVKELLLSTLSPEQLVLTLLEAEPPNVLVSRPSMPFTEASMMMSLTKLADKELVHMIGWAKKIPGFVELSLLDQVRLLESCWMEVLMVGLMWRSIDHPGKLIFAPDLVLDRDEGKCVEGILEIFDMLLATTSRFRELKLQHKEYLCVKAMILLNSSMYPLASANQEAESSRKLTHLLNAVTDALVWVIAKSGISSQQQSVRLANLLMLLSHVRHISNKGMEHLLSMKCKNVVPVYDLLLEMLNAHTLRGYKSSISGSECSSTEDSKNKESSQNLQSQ
ERβ ligand binding domain, sequence (Q92731 whole entry, looked up, the tested form may be a part): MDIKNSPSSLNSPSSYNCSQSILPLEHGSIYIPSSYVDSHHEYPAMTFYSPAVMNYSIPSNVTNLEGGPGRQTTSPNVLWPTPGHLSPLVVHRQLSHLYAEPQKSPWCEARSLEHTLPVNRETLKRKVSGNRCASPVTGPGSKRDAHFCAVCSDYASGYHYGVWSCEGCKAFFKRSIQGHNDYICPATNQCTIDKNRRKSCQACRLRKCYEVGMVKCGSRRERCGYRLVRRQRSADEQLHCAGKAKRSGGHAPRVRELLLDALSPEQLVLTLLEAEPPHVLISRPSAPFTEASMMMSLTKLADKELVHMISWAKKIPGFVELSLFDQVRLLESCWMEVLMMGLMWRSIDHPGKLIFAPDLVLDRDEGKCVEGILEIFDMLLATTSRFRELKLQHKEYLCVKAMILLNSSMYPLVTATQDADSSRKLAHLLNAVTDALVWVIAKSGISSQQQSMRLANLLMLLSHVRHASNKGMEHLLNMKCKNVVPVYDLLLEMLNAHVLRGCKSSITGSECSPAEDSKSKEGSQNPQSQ
ERα ligand binding domain, sequence (P03372 whole entry, looked up, the tested form may be a part): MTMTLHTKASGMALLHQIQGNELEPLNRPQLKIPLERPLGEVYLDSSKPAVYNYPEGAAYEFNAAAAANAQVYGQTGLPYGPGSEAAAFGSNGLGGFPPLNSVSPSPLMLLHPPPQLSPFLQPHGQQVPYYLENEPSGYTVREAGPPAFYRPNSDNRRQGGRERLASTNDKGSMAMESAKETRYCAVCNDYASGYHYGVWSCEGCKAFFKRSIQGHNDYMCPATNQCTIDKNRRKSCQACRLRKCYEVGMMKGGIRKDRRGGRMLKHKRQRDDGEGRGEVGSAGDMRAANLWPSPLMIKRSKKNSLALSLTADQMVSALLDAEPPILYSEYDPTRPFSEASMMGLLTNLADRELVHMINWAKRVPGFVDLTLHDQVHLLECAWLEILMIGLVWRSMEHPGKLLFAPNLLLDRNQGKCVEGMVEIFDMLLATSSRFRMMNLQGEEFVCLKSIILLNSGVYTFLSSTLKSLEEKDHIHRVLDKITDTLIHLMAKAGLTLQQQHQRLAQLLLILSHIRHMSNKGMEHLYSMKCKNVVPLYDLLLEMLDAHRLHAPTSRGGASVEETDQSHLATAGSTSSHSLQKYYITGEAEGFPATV

## C[C@]12CC[C@@H]3c4ccc(O)cc4CC[C@H]3[C@@H]1CC[C@@H]2O [Estradiol, reference compound]
[1]
  EC50: 36.4 µM
[2]
  Ang II induced increase in heart size and total heart weight: prevented the increased size
[2]; wildtype but not ERβKO mice
  Ang II induced left ventricular hypertrophy (LVW/BW): largely prevented
[3]; WT mice, not ERβKO
  Ventricular hydroxyproline content: significantly inhibited the hydroxyproline content
[3]; only in WT mice
  Ang II induced cardiac fibrosis (interstitial collagen): significantly inhibited fibrosis
ER-β; dose 1 nM
  ER-β RLU/RenRLU: 0.48 RLU/RenRLU
[4]; ERβ-KO mice, 21 days
  Ang II induced hypertension, diastolic pressure: unchanged
  Ang II induced hypertension, systolic pressure: mildly reduced
[4]; ERβKO, 7 days
  Diastolic pressure: 95
  Systolic pressure: 149
[4]; ERβKO, 14 days
  Diastolic pressure: 98
  Systolic pressure: 143
[4]; ERβKO, 21 days
  Diastolic pressure: 96
  Systolic pressure: 145
[4]; ERβKO, time 0
  Diastolic pressure: 86
  Systolic pressure: 126
[4]; WT, 7 days
  Diastolic pressure: 82
  Systolic pressure: 121
[4]; WT, 14 days
  Diastolic pressure: 86
  Systolic pressure: 124
[4]; WT, 21 days
  Diastolic pressure: 88
  Systolic pressure: 131
[4]; WT, time 0
  Diastolic pressure: 85
  Systolic pressure: 123
[4]; wildtype mice, 21 days
  Ang II induced hypertension: largely prevented
ARPE-19 cells; 100 nM
  Reduction in ROS formation: approximately 30%

## CCCc1c(-c2ccc(O)cc2)nn(-c2ccc(O)cc2)c1-c1ccc(O)cc1 [PPT, 1,3,5-tris(4-hydroxyphenyl)-4-propyl-1H-pyrazole, reference compound]
SHP promoter; transfected with FXR and ER-α
  SHP promoter activity: increased SHP activity

## O=c1c2c(O)cc(O)cc2c(Cl)cn1-c1ccc(O)cc1 [12y, 4-chloro-6,8-dihydroxy-2-(4-hydroxyphenyl)isoquinolin-1(2H)-one]
[5]
  inhibition at 0.1 µM: 51.9%
ER-β
  ER-β agonist activity: ER-β agonist activity
[6]
  Ki Ratio (ER-α/ER-β): 11
[6]; read-out: Percent Inhibition of [3H]-Estradiol Binding to ER-β
  inhibition at 0.1 µM: 97.5%
Rat aorta rings
  Mean of Maximal % Decrease of the PE constriction of the aortic ring: 80.63%
Rat aorta rings; Rattus norvegicus
  EC50: 13.2 µM
[7]
  Adhesion of 3H labeled THP-1 cells to bEND-3 cells: significantly inhibited
ER-α
  Classification as ER-α agonist: ER-α agonists
ARPE-19 cells
  Inhibition of ROS formation: more than 50%
  Prevention of ROS formation / oxidative stress: protected ARPE-19 cells from oxidative damage

## CC(C)c1onc(-c2c(Cl)cccc2Cl)c1COc1ccc(/C=C/c2cccc(C(=O)O)c2)c(Cl)c1 [GW4064, reference compound]
SHP promoter; transfected with FXR and ER-β
  SHP promoter activity: increased its activity significantly
